Laboratory results taken from patent US20150314007A1, “LINKER-PAYLOAD MOLECULE CONJUGATES” (GLYKOS FINLAND OY, priority 2012, published 2015).
Where a SMILES comes first, the peptide text is derived from it. [ ]: non-standard residue; d: D form. The star is where a group is joined. Dolaproine = CO[C@@H]([C@@H]1CCCN1)[C@@H](C)C(=O)O; Dil = CC[C@H](C)[C@H](NC)[C@@H](CC(=O)O)OC; Doe = c1ccc(C[C@H](N*)c2nccs2)cc1; NMeV = CN[C@H](C(=O)O)C(C)C

Test system: Human ovarian cancer cell line SKOV-3
Test: In vitro cytotoxicity, SKOV-3 cell viability (PrestoBlue)
Conditions: for cytotoxicity compared with 1 (MMAF): SKOV-3, applied to the cell culture medium; for cytotoxicity compared with 2 (monomethyldolastatin 10): SKOV-3
[1] = SKOV-3, 96 h, concentration range wherein viability falls to 50%, measured range 1 nM-10 μM

Experimental: Human ovarian cancer cell line SKOV-3 was from the ATCC (Manassas, Va., USA). The cells were grown according to the manufacturer's recommendations. Log phase cultures were collected and 5000 cells/well were seeded onto 96-well plates and incubated for 24 h. Serial dilutions of test molecules from a stock solution of 100 μM in 10% DMSO were made in cell culture medium, added to cells (maximum concentration of dimethylsulphoxide was 1%) and cultures were incubated further for 96 h. Cell viability was evaluated using PrestoBlue cell viability reagent (Life Technologies, Carlsbad, Calif., USA) according to the manufacturer's instructions. Cells were incubated for 2 h, and dye reduction was measured by absorbance at 570 nm. The compounds were assayed 1-2 times in triplicate.

Row | Compound | IC50 (Homo sapiens, SK-OV-3, 96 h) [nM] | cytotoxicity compared with 1 (MMAF) | IC50 [1] [nM] | cytotoxicity compared with 2 (monomethyldolastatin 10)
1 | CCC(C)C(C(CC(=O)N1CCCC1C(OC)C(C)C(=O)NC(Cc1ccccc1)C(=O)O)OC)N(C)C(=O)C(NC(=O)C(C(C)C)N(C)CC(O)C(O)C(O)C(O)COC1OC(CO)C(O)C(O)C1O)C(C)C [Compound 8, N-[6-O-(β-D-galactopyranosyl)-D-galactosyl]-MMAF] | 1000 to 10000 | less cytotoxic | – | –
2 | CCC(C)C(C(CC(=O)N1CCCC1C(OC)C(C)C(=O)NC(Cc1ccccc1)C(=O)O)OC)N(C)C(=O)C(NC(=O)C(C(C)C)N(C)CC(O)C(O)C(OC1OC(CO)C(OC2OC(CO)C(O)C(O)C2O)C(O)C1O)C(O)CO)C(C)C [Compound 10, N-{4-O-[4-O-(α-D-galactopyranosyl)-β-D-galactopyranosyl]-D-glucosyl}-MMAF] | 1000 to 10000 | – | – | –
3 | CCC(C)C(C(CC(=O)N1CCCC1C(OC)C(C)C(=O)NC(Cc1ccccc1)C(=O)O)OC)N(C)C(=O)C(NC(=O)C(C(C)C)N(C)CCC(O)C(O)C(O)CO)C(C)C [Compound 5, N-(2-deoxy-D-glucosyl)-MMAF] | 1000 | equally or only slightly less cytotoxic | – | –
4 | C#CCCN(C)C(C(=O)NC(C(=O)N(C)C(C(C)CC)C(CC(=O)N1CCCC1C(OC)C(C)C(=O)NC(Cc1ccccc1)C(=O)O)OC)C(C)C)C(C)C (centres unmarked) [Compound 6, N-(3-butynyl)-MMAF] | < 1 | more cytotoxic | – | –
5 | N-(6-O-propargyl-D-galactosyl)-MMAF [Compound 3] | – | – | 100 to 10000 | –
6 | CCC(C)C(C(CC(=O)N1CCCC1C(OC)C(C)C(=O)NC(Cc1ccccc1)c1nccs1)OC)N(C)C(=O)C(NC(=O)C(C(C)C)N(C)CC(O)C(O)C(O)C(O)CN=[N+]=[N-])C(C)C [Compound 13, N-(6-azido-6-deoxy-D-galactosyl)-dolastatin 10] | < 1 | – | – | equally or only slightly less cytotoxic
7 | N-(6-azido-6-deoxy-D-galactosyl)-MMAF [Compound 4] | – | – | 100 to 1000 | –
8 | N-glutaryl-MMAF [Compound 14b] | – | – | 100 to 1000 | equally or only slightly less cytotoxic
9 | CCC(C)C(C(CC(=O)N1CCCC1C(OC)C(C)C(=O)NC(Cc1ccccc1)C(=O)O)OC)N(C)C(=O)C(NC(=O)C(C(C)C)N(C)CC(O)C(O)C(OC1OC(CO)C(O)C(OC2(C(=O)O)CC(O)C(NC(C)=O)C(C(O)C(O)CO)O2)C1O)C(O)CO)C(C)C [Compound 11, N-{4-O-[3-O-(α-N-acetylneuraminyl)-β-D-galactopyranosyl]-D-glucosyl}-MMAF] | > 10000 | less cytotoxic | – | –
10 | CC[C@H](C)[C@@H]([C@@H](CC(=O)N1CCC[C@H]1[C@H](OC)[C@@H](C)C(=O)N[C@@H](Cc1ccccc1)C(=O)O)OC)N(C)C(=O)[C@@H](NC(=O)[C@@H](NC)C(C)C)C(C)C [Compound 1, Monomethylauristatin F, reference compound] (HELM PEPTIDE1{[meV].V.[CC[C@H](C)[C@@H]([C@@H](CC(=O)[*:2])OC)N(C)[*:1]].[CO[C@H]([C@@H](C)C(=O)[*:2])[C@@H]1CCCN1[*:1]].F}$$$$V2.0) | – | – | 100 to 1000 | –
11 | CC[C@H](C)[C@@H]([C@@H](CC(=O)N1CCC[C@H]1[C@H](OC)[C@@H](C)C(=O)N[C@@H](Cc1ccccc1)c1nccs1)OC)N(C)C(=O)[C@@H](NC(=O)[C@@H](NC)C(C)C)C(C)C [Compound 2, monomethyldolastatin 10, reference compound] (H-[NMeV]V[Dil][Dolaproine]-Doe) | – | – | < 1 | –
